Reference: patent US9125388B2, “Biological control” (Isis Innovation Limited, priority 1999, dated 2015)

Experiments:
Assay type in all cases: in vivo, Drosophila melanogaster
[1] = test system: Actin5C tTa^(B, C, E) × tRe Msl-1^MPu(A, B); experiment: Single chromosome crosses at 25° C., adult progeny by sex
Description: (§1) In “single chromosome crosses” at 25° C., ten to fifteen virgin females homozygous for the tTA construct and five to ten young males homozygous for the tRe construct were placed on food containing or lacking a tetracycline supplement.

[2] = test system: Actin5C tTa^(B, C, E) × tRe Msl-2^Nopu (B, C, D); experiment: as above
Description: as §1

[3] = test system: Actin5C tTa^(B, C, E) × tRe Ras64B^V12(B, C); experiment: as above
Description: as §1

[4] = test system: Hsp26 tTa^(A) × tRe MSl-1^Mpu(A, B,); experiment: as above
Description: as §1

[5] = test system: Hsp26 tTa^(A) × tRe Ras64B^V12(B, C,); experiment: as above
Description: as §1

[6] = test system: Stwl tTa^(A, B, C) × tRe Msl-1^Mpu(A, B); experiment: as above
Description: as §1

[7] = test system: Stwl tTa^(A, B, C) × tRe Msl-2^Nopu(B, C, D); experiment: as above
Description: as §1

[8] = test system: Stwl tTa^(A, B, C) × tRe Ras64B^V12(B, C); experiment: as above
Description: as §1

[9] = test system: Sxlpe tTa^(A, B, C, F) × tRe Msl-2^Nopu(B, C, D); experiment: as above
Description: as §1

[10] = test system: Yp3 tTa^(A) × tRe Msl-1^Mpu(A, B,); experiment: as above
Description: as §1

[11] = test system: Yp3 tTa^(A) × tRe Msl-2^Nopu(A, B,); experiment: as above
Description: as §1

[12] = test system: Yp3 tTa^(A) × tRe Ras64B^V12(B, C,); experiment: as above
Description: as §1

[13] = test system: Yp3 tTa, tRe Msl-1^Mpu on the 2nd chromosome; experiment: Recombinant chromosome experiments: parents raised on supplement, progeny on normal food, adults by sex (25, 18 or 29° C.)
Description: 40-45 young females and 20-25 young males raised at 25° C. upon food with the indicated tetracycline supplement were allowed to mate, then transferred to normal (tetracycline-free) food after 3-4 days. These flies were transferred to fresh vials of normal food every day for 12 days, then removed on the 13th day. All the vials were incubated at 25° C. while the progeny developed. The numbers of male and female progeny emerging as adults in each vial were recorded.
Since there is no meiotic recombination in Drosophila melanogaster males, any of these recombinant chromosomes could be used in a genetic sexing or insect control program, if required.
A standard range of additive concentrations were used in the following experiments (0.05-20 μg/ml). […] (=“not done”)
All the preceding experiments were performed at 25° C., the standard temperature for Drosophila culture. However, the insects in the wild would clearly be exposed to varying temperatures, so we investigated the extent to which the efficiency of the system is affected by temperature. As with the recombinant chromosome experiments, 40-45 young virgin females and 20-25 young males raised at 25° C. upon food with the indicated tetracycline supplement were allowed to mate, then transferred to normal (tetracycline-free) food after 3-4 days. These flies were transferred to fresh vials of normal food every day. The numbers of male and female progeny emerging as adults in each vial were recorded. These experiments were performed at either 18° C. or 29° C.

[14] = parents raised on tetracycline 0.1 μg/ml, 18° C.
[15] = parents raised on tetracycline 0.1 μg/ml, 29° C.
[16] = parents raised on tetracycline 1 μg/ml, 18° C.
[17] = parents raised on tetracycline 1 μg/ml, 29° C.
[18] = parents raised on tetracycline 5 μg/ml, 18° C.
[19] = parents raised on tetracycline 5 μg/ml, 29° C.

## CN(C)[C@@H]1C(O)=C(C(N)=O)C(=O)[C@@]2(O)C(O)=C3C(=O)c4c(O)cccc4[C@@](C)(O)[C@H]3C[C@@H]12 [Tetracycline, tetracycline]
[1]; Tetracycline 0.1 μg/ml in food
  Female progeny Total: 412
  Male progeny Total: 402
[1]; Tetracycline 1 μg/ml in food
  Female progeny Total: 321
  Male progeny Total: 351
[1]; Tetracycline 5 μg/ml in food
  Female progeny Total: 386
  Male progeny Total: 401
[2]; Tetracycline 0.1 μg/ml in food
  Female progeny Total: 548
  Male progeny Total: 637
[2]; Tetracycline 1 μg/ml in food
  Female progeny Total: 590
  Male progeny Total: 549
[2]; Tetracycline 5 μg/ml in food
  Female progeny Total: 615
  Male progeny Total: 522
[3]; Tetracycline 0.1 μg/ml in food
  Female progeny Total: 361
  Male progeny Total: 372
[3]; Tetracycline 1 μg/ml in food
  Female progeny Total: 427
  Male progeny Total: 383
[3]; Tetracycline 5 μg/ml in food
  Female progeny Total: 375
  Male progeny Total: 400
[4]; Tetracycline 0.1 μg/ml in food
  Female progeny Total: 328
  Male progeny Total: 368
[4]; Tetracycline 1 μg/ml in food
  Female progeny Total: 310
  Male progeny Total: 343
[4]; Tetracycline 5 μg/ml in food
  Female progeny Total: 313
  Male progeny Total: 347
[5]; Tetracycline 0.1 μg/ml in food
  Female progeny Total: 235
  Male progeny Total: 210
[5]; Tetracycline 1 μg/ml in food
  Female progeny Total: 199
  Male progeny Total: 274
[5]; Tetracycline 5 μg/ml in food
  Female progeny Total: 156
  Male progeny Total: 154
[6]; Tetracycline 0.1 μg/ml in food
  Female progeny Total: 211
  Male progeny Total: 336
[6]; Tetracycline 1 μg/ml in food
  Female progeny Total: 236
  Male progeny Total: 257
[6]; Tetracycline 5 μg/ml in food
  Female progeny Total: 223
  Male progeny Total: 291
[7]; Tetracycline 0.1 μg/ml in food
  Female progeny Total: 436
  Male progeny Total: 491
[7]; Tetracycline 1 μg/ml in food
  Female progeny Total: 439
  Male progeny Total: 490
[7]; Tetracycline 5 μg/ml in food
  Female progeny Total: 434
  Male progeny Total: 481
[8]; Tetracycline 0.1 μg/ml in food
  Female progeny Total: 317
  Male progeny Total: 315
[8]; Tetracycline 1 μg/ml in food
  Female progeny Total: 307
  Male progeny Total: 328
[8]; Tetracycline 5 μg/ml in food
  Female progeny Total: 271
  Male progeny Total: 335
[9]; Tetracycline 0.1 μg/ml in food
  Female progeny Total: 647
  Male progeny Total: 562
[9]; Tetracycline 1 μg/ml in food
  Female progeny Total: 644
  Male progeny Total: 674
[9]; Tetracycline 5 μg/ml in food
  Female progeny Total: 615
  Male progeny Total: 742
[10]; Tetracycline 0.1 μg/ml in food
  Female progeny Total: 336
  Male progeny Total: 379
[10]; Tetracycline 1 μg/ml in food
  Female progeny Total: 319
  Male progeny Total: 347
[10]; Tetracycline 5 μg/ml in food
  Female progeny Total: 307
  Male progeny Total: 348
[11]; Tetracycline 0.1 μg/ml in food
  Female progeny Total: 268
  Male progeny Total: 248
[11]; Tetracycline 1 μg/ml in food
  Female progeny Total: 324
  Male progeny Total: 362
[11]; Tetracycline 5 μg/ml in food
  Female progeny Total: 349
  Male progeny Total: 386
[12]; Tetracycline 0.1 μg/ml in food
  Female progeny Total: 322
  Male progeny Total: 352
[12]; Tetracycline 1 μg/ml in food
  Female progeny Total: 342
  Male progeny Total: 376
[12]; Tetracycline 5 μg/ml in food
  Female progeny Total: 316
  Male progeny Total: 354
[13]; even at low (parental) tetracycline concentrations
  escapers: < 1%
[13]; [14]
  Female progeny emerging as adults: 5
  Male progeny emerging as adults: 1303
[13]; [15]
  Female progeny emerging as adults: 0
  Male progeny emerging as adults: 799
[13]; [16]
  Female progeny emerging as adults: 14
  Male progeny emerging as adults: 1218
[13]; [17]
  Female progeny emerging as adults: 0
  Male progeny emerging as adults: 749
[13]; [18]
  Female progeny emerging as adults: 7
  Male progeny emerging as adults: 1386
[13]; [19]
  Female progeny emerging as adults: 0
  Male progeny emerging as adults: 744
